The supplement of paper PMC12076712

Key:
Assay in all cases: pIC50, kinobeads binding competition
Conditions in all cases: cell material: Jurkat lysate
LIMK2 = LIMK2 (UniProt P53671)
MAPK11 = MAPK11 (UniProt Q15759)
NLK = target: T1, NLK (UniProt Q9UBE8)
T1 sequence (whole entry): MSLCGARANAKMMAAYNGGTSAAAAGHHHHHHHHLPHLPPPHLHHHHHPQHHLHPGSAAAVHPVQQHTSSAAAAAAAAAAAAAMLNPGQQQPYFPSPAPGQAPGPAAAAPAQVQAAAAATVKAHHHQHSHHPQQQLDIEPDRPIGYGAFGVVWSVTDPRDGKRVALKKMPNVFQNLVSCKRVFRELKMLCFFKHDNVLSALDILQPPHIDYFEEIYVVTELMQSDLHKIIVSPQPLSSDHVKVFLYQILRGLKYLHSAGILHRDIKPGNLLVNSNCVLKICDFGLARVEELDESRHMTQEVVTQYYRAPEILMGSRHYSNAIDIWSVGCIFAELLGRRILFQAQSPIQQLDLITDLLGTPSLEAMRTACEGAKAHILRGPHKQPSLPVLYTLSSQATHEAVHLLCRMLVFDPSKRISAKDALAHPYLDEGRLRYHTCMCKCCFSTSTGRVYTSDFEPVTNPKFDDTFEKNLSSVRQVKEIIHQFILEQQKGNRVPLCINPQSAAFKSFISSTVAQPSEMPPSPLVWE

PRKCB = PRKCB (UniProt P05771)
Sequence of PRKCB (P05771 whole entry, looked up): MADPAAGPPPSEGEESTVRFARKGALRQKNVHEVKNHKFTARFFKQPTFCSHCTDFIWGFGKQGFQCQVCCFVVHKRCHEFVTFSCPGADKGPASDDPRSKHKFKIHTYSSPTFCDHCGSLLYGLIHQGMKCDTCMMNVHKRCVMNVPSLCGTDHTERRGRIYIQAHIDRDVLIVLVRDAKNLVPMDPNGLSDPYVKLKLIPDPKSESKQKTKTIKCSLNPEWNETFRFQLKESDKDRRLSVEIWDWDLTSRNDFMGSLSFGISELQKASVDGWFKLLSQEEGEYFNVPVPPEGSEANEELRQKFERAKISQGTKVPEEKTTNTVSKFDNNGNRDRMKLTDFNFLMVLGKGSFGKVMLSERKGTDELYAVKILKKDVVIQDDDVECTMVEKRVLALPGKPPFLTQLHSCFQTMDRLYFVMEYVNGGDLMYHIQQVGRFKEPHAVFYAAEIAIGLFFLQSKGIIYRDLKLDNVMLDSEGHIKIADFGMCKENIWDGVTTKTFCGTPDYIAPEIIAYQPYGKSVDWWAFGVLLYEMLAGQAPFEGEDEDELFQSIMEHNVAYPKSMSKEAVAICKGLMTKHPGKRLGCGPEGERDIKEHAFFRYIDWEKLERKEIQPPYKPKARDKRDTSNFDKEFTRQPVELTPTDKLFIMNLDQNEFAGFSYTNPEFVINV

UniProt Q13043 = target: T2, UniProt Q13043
T2 sequence (whole entry): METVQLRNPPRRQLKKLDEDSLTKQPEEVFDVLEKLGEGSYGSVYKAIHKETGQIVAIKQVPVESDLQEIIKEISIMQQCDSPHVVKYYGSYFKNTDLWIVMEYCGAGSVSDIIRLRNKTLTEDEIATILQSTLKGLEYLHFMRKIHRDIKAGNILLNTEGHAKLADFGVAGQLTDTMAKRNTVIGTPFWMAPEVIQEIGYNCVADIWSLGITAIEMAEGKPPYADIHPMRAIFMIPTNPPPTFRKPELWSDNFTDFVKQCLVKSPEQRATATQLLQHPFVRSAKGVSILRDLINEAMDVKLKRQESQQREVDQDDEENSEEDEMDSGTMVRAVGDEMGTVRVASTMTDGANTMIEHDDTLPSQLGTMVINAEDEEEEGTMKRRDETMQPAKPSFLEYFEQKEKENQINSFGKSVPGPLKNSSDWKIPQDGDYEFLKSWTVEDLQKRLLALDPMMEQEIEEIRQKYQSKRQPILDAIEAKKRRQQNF

UniProt Q8IW41 = target: T3, UniProt Q8IW41
T3 sequence (whole entry): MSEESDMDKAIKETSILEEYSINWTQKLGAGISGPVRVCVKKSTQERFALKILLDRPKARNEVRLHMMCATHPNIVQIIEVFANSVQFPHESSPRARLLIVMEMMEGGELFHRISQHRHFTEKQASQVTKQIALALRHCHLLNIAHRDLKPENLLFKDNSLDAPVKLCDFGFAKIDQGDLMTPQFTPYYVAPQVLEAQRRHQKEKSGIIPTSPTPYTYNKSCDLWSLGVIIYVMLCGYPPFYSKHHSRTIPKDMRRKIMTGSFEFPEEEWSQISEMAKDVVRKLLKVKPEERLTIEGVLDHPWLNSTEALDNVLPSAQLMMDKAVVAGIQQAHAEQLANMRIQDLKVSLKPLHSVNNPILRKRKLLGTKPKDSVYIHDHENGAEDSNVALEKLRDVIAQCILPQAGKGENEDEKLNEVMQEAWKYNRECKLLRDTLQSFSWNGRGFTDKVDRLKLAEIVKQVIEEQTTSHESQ

UniProt Q99683 = target: T4, UniProt Q99683
T4 sequence (whole entry): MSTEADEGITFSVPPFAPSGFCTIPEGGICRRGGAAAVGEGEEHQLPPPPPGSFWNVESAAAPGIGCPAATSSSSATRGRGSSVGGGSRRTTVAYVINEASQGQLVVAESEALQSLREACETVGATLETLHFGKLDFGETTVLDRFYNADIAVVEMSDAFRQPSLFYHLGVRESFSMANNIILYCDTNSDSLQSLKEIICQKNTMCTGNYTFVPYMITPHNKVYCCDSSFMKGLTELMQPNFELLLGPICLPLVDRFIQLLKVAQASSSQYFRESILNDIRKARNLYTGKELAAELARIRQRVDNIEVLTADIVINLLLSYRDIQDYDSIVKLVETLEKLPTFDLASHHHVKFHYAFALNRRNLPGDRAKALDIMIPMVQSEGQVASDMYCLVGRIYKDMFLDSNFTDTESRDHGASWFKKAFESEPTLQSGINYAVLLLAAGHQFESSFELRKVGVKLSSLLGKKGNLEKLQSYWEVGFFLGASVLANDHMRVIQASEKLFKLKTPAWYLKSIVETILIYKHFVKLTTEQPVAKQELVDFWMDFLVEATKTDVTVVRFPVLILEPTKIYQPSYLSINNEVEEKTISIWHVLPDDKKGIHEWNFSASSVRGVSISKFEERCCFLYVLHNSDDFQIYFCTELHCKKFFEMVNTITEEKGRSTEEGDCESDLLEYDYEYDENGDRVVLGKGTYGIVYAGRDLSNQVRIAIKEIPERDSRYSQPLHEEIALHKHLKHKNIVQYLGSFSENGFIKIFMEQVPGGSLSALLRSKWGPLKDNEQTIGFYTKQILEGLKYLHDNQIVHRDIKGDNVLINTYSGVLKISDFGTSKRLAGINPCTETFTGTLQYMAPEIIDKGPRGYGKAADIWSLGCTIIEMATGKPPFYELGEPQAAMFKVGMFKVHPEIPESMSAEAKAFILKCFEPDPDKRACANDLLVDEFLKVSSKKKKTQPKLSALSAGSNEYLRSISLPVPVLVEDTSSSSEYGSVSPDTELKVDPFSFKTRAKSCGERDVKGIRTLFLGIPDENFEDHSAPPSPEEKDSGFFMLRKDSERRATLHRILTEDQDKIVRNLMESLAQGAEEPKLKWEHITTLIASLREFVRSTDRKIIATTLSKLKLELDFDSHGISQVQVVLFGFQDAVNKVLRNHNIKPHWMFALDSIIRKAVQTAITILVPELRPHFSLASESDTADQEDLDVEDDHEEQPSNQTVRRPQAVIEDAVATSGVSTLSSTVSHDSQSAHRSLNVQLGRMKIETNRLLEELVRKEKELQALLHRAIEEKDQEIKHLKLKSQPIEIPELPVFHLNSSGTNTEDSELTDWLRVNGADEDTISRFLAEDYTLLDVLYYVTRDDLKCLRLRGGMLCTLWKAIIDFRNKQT

WEE1 = WEE1 (UniProt P30291)
Sequence of WEE1 (P30291 whole entry, looked up): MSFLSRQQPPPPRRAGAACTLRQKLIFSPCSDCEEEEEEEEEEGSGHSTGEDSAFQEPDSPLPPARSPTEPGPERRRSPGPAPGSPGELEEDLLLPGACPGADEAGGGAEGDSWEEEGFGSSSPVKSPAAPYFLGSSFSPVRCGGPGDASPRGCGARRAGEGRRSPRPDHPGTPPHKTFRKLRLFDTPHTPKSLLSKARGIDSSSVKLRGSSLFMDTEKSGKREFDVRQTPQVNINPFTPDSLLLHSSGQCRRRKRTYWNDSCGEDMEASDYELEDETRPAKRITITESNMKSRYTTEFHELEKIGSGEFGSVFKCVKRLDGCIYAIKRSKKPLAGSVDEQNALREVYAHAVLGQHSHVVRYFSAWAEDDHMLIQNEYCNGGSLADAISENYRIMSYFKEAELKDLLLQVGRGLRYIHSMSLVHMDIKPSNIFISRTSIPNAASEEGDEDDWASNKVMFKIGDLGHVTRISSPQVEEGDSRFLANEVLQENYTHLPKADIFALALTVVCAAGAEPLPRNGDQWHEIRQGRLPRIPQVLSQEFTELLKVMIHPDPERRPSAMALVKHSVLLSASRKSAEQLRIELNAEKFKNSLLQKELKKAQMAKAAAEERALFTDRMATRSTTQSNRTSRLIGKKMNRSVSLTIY

Measured: pIC50

Sequence of MAPK11 (Q15759 whole entry): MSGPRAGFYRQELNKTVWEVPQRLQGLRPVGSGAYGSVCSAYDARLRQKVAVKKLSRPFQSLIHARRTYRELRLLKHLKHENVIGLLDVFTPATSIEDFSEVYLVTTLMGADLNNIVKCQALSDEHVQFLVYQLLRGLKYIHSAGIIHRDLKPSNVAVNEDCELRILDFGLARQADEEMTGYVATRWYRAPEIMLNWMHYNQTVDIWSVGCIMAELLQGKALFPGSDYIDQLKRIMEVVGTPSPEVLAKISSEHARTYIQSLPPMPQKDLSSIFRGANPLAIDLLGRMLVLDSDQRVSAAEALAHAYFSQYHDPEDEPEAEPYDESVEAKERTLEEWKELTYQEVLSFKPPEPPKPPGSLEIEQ
Sequence of LIMK2 (P53671 whole entry, looked up): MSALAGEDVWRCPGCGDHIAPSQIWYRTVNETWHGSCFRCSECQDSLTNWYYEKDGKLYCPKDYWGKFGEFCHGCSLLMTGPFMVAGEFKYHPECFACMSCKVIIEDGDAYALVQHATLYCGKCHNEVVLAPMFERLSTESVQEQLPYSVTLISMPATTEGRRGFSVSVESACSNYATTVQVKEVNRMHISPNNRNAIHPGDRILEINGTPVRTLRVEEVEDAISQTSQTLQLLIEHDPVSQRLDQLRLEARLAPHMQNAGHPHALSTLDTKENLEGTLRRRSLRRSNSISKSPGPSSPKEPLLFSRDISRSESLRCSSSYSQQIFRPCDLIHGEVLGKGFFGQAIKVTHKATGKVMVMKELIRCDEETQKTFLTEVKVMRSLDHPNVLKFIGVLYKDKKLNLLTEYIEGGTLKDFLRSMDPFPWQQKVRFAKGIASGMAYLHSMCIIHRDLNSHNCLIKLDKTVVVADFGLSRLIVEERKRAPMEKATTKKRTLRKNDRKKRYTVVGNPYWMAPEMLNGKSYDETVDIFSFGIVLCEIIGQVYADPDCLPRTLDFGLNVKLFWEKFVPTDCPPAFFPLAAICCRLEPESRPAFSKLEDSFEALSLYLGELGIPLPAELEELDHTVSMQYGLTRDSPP

CCc1cnn2c(NCc3ccc[n+]([O-])c3)cc(N3CCCC[C@H]3CCO)nc12 [dinaciclib]
< 4.52: all assays above
